Results on two molecules are retold here after patent US5506271A, “Method of treating papilloma virus infection using hypericin” (New York University, priority 1993, dated 1996).

Entries after “also recorded” stand apart in the source; their conditions may differ. Read-outs that look alike come from different tables or passages of the source.

One series relates to murine RadLV particles. Briefly: Inactivation of RadLV particles by hypericin with Rose Bengal (particle-derived reverse transcriptase). The format is biochemical. The following applies: Rose Bengal 1-2 μg/ml, hypericin 0.001-1 μg/ml; FIG. 4. As to the method: Assays for virus particle-derived reverse transcriptase were performed according to Stephenson, J. R. et al., Virology 48:749-756 (1972)).
Hypericin is a photodynamic agent which, in the presence of light, produces excited oxygen species such as singlet oxygen and superoxide radicals. These excited oxygen species play a role in the antiviral and antiretroviral activity of hypericin and hypericin analogs. While this property of producing excited oxygen species may account for inactivation of the virus or retrovirus particle, it is not sufficient to explain the enhanced immunogenicity of the inactivated virus. Support for this notion comes from experimental findings by the present inventors using another photodynamic agent, Rose Bengal. Rose Bengal also produces excited oxygen species, is also capable of inactivating retroviral particles and interacts synergistically with hypericin in inactivating the virus.

For series [1], the system named is Friend virus. Briefly: Protective effect of virus preparations inactivated with hypericin, Rose Bengal or combinations against live Friend virus challenge (FIG. 10). In kind it is in vivo, BALB/C mice. The following applies: challenge day 21, spleens weighed after 15 days. From the text: FIG. 10 is a graph showing the protective effect of the inactivated virus preparations described in FIG. 9. On day 21 after administration of the treated virus preparation, all animals were challenged with live Friend virus. Also included were control groups of mice injected with live Friend virus, and mice injected with PBS only. After 15 days, all mice were sacrificed and their spleens weighed as a measure of protection.
In this experiment, inhibition of splenomegaly served as the measure of protection resulting from immunogenicity of the virus preparations.

The test system of series [2] is Friend virus. In words: Inactivation of Friend virus by hypericin, Rose Bengal and combinations, splenomegaly (FIG. 9). The following applies: agents at 2-5 mg/ml, 1 hour on ice, virus 1:2000, spleen weight day 14. The format is in vivo, BALB/C mice. As to the method: FIG. 9 is a graph showing the inactivation of Friend virus by Hypericin, Rose Bengal and combinations thereof. Friend virus was diluted 1:2000 in PBS and incubated with no hypericin or concentrations of hypericin of 1, 2, or 5 mg/ml alone, or in combination with Rose Bengal (RB) at concentrations of 2 and 5 mg/ml for 1 hour on ice. The treated virus preparations were injected into BALB/C mice. On day 14, 1 mouse from each group was sacrificed and analyzed for spleen weight.
FIGS. 9 and 10 show the results of a study in which Friend virus was treated with hypericin, Rose Bengal or combinations of hypericin and Rose Bengal at different concentrations and ratios. The virus treated in this manner was injected into BALB/C mice. […] Lack of, or suppression of, splenomegaly serves as an index of the degrees of virus inactivation. […] This proves that virus inactivation by both agents, alone and in combination, was effective.

Series [3] has as its system Friend leukemia virus (FLV). In words: Inactivation of Friend leukemia virus by extracorporeal hypericin treatment, splenomegaly in mice. The format is in vivo, BALB/c mice. As to the method:
FIG. 6 is a graph showing the inactivation of Friend leukemia virus (FLV) extracorporeal treatment with hypericin. Virus infectivity is measured as splenomegaly. Uninfected mice generally have spleen weights in the range of 0.08 to 0.2 grams.
Synthetic hypericin prepared from emodin was solubilized in 0.5% aqueous benzyl alcohol and administered to a concentrated stock of Friend virus estimated to contain greater than 10^4 virus focus forming units at final hypericin concentrations of 1 μg/ml and 5 μg/ml. The mixture was incubated on ice for one hour. A control preparation was incubated in parallel in the absence of the compound. Additional experimental groups were exposed to light from a 200 watt visible light halogen source in the presence of equivalent hypericin concentrations for 1×30 seconds and 2×30 seconds respectively.
The treated virus was diluted in phosphate buffered saline (PBS) to final dilutions of 1:500 and of 1:2000. The diluted treated and control virus preparations were injected intraperitoneally into BALB/c mice (3 mice per group). A single mouse from each group was sacrificed on day 11 for assessment of spleen size in order to determine the degree of FLV inactivation by hypericin.

The test system of series [4] is purified reverse transcriptase enzyme. Briefly: Enzymatic activity of purified reverse transcriptase enzyme. The format is biochemical. The following applies: assay conditions used, FIG. 2. As to the method: (§1) Thus it is much more difficult to measure reverse transcriptase from virus treated with hypericin prior to exposure to detergent than with virus first disrupted with detergent and then incubated with hypericin.

The test system of series [5] is Radiation leukemia virus (RadLV). In words: Guanidinium hydrochloride extraction of RNA from hypericin-treated virions. More on the design: species or system murine. The following applies: virions treated with hypericin prior to GuHCl disruption; FIG. 3. From the text:
The present inventors have further discovered that hypericin-treated retroviral particles become more resistant to dissociation by harsh denaturing reagents such as guanidinium hydrochloride (GuHCl). These denaturing agents effectively disrupt hydrogen bonding, thereby unfolding tertiary and quaternary structures of proteins and causing dissociation of bonded proteins and the collapse of biological structures.

Series [6] deals with HIV reverse transcriptase activity. Briefly: Reverse transcriptase activity of hypericin-treated HIV. The following applies: Expt 1. The format is biochemical. The procedure: Hypericin Reduces Infectivity and Reverse Transcriptase
Activity of HIV Infecting CEM × 14 Cells
(§2) overnight with hypericin at 4° C.. RT: reverse transcriptase

Series [7] relates to HIV. In words: Effect of light on hypericin reduction of HIV infectivity titer for H9 target cells, limiting dilution assay. In kind it is cell-based. The following applies: ambient light; FIG. 5. From the text:
FIG. 5 is a graph showing the effect of ambient light treatment on hypericin's ability to reduce the infectivity titer of HIV for H9 target cells, measured in a limiting dilution assay.

Series [8] in a line: Solubility of hypericin ion pair and salt forms in organic solvents. The format is physicochemical. From the text: As indicated above, hypericin has hydroxy groups at R^1 and R^2 in its free acid form. Upon reaction with a base, the free acid form of hypericin ionizes at R^1 and R^2. Under alkaline conditions below about pH 11.5, only one of these hydroxy groups ionize to form a salt with the base. At more alkaline conditions, both hydroxy groups ionize to form a salt with two basic cations. The salt with two basic cations has substantially different physical properties as that with one cation. […] To differentiate these two forms of hypericin, the former, which behaves as an organic compound, will be referred to herein as an ion pair and the latter as a salt.

Series [9] concerns HIV. Briefly: HIV infectivity monitored by HIV-induced destruction of CEM ×174 cultures infected with dilutions of hypericin-treated virus. The following applies: for log reduction at 10 µg/mL: hypericin 10 μg/ml. The format is cell-based. As to the method: Hypericin can effectively inactivate retroviral particles rendering them non infectious.
In these experiments infectivity was monitored by HIVinduced destruction
of CEM ×174 after these cultures were infected with increasing
dilutions of hypericintreated virus. For Experiment 2, virus was incubate
as §2

The next series has as its system retroviral particles. Briefly: Detergent-mediated (Triton X-100) release of reverse transcriptase from hypericin-treated viral particles. In kind it is biochemical. The procedure: as §1
The effects on virion-encapsulated enzyme are presumed to be due to the failure of the capsids, within which the […] is sequestered, to be disrupted after hypericin treatment.

As for `O=C1OC2(c3cc(I)c(O)c(I)c3Oc3c2cc(I)c(O)c3I)c2c(Cl)c(Cl)c(Cl)c(Cl)c21` [Rose Bengal], in the series on murine RadLV particles, the “effect of Rose Bengal on hypericin inactivation of retroviral particles” value is on record as “enhances the ability of hypericin; also recorded: enhanced the ability of hypericin to inactivate retroviral particles”. For the same molecule, the “protection from live virus challenge (immunogenicity of inactivated virus preparation)” value is reported as “does not cause marked enhancement of immunogenicity” in the series with Friend virus [1] and “lower levels of protection” in the series on Friend virus [1] (listed as Rose-Bengal). In addition, the “suppression of virus-induced splenomegaly (virus inactivation)” value in the series with Friend virus [2] is “effectively suppressed virus-induced splenomegaly”.
Regarding `Cc1cc(O)c2c(=O)c3c(O)cc(O)c4c5c(O)cc(O)c6c(=O)c7c(O)cc(C)c8c1c2c(c34)c(c78)c65` [hypericin], the “effect of increased light exposure on FV inactivation by hypericin” value in series [3] (200 watt visible light halogen source, 1×30 and 2×30 seconds) is listed as “did not enhance the ability of hypericin to inactivate FV”. Also, in series [3] (hypericin 1 and 5 μg/ml, 1 hour on ice, i.p. BALB/c mice, spleen size day 11, FIG. 6), the “virus-induced splenomegaly after injection of hypericin-treated FLV” value was “significantly reduced the ability of the virus to induce splenomegaly; also recorded: absence or presence of minimal splenomegaly”. The “effect on reverse transcriptase enzymatic activity” value in series [4] is recorded as “no effect on reverse transcriptase enzymatic activity; also recorded: does not directly affect enzymatic activity of purified reverse transcriptase enzyme”. In addition, in [5], the “extraction of viral RNA by guanidinium hydrochloride” value is “dramatic inhibition of the ability of guanidinium hydrochloride to extract RNA; also recorded: yields of extractable RNA were markedly reduced”. For the same molecule, the results for the “INHIBITION (Log1 0 Reduction) RT” value in [6] (hypericin 10 μg/ml) and in series [6] (hypericin 25 μg/ml) were 0.60 Log1 0 Reduction and 1.72 Log1 0 Reduction, respectively. For the same molecule, in the series with Friend virus [1], the “protection from live virus challenge (immunogenicity of inactivated virus preparation)” value is listed as “greatest degree of protection”. Further, the “suppression of virus-induced splenomegaly (virus inactivation)” value in the series with Friend virus [2] is given as “effectively suppressed virus-induced splenomegaly”. Further, the “effect of light on antiviral activity of hypericin” value with HIV [7] is reported as “Light can enhance the antiviral activity”. Moreover, the “solubility in organic solvents” value in series [8] (above pH 11.5 (salt, two cations)) is listed as “substantially insoluble in organic solvents”; in series [8] (below pH 11.5 (ion pair, one cation)), “soluble in organic solvents”. In addition, the log reduction at 10 µg/mL with HIV [9] (Human immunodeficiency virus 1, CEM174, Expt 1, read-out: INHIBITION (Log1 0 Reduction) INFECTIVITY) worked out at 4; in the series with HIV [9] (Human immunodeficiency virus 1, CEM174, Expt 2, virus incubated overnight at 4° C., read-out: INHIBITION (Log1 0 Reduction) INFECTIVITY) it was 4.75. Further, the log reduction at 25 µg/mL with HIV [9] (Human immunodeficiency virus 1, CEM174, Expt 1, hypericin 25 μg/ml, read-out: INHIBITION (Log1 0 Reduction) INFECTIVITY) was determined as 4.75. Also, in the series with HIV [9] (Human immunodeficiency virus 1, CEM174, Expt 2, hypericin 1 μg/ml, virus incubated overnight at 4° C., read-out: INHIBITION (Log1 0 Reduction) INFECTIVITY), the log reduction at 1 µg/mL was found to be 0. In the series on HIV [9] (Human immunodeficiency virus 1, CEM174, Expt 2, hypericin 2 μg/ml, virus incubated overnight at 4° C., read-out: INHIBITION (Log1 0 Reduction) INFECTIVITY), the log reduction at 2 µg/mL amounted to 3.75. Further, the log reduction at 5 µg/mL in the series with HIV [9] (Human immunodeficiency virus 1, CEM174, Expt 2, hypericin 5 μg/ml, virus incubated overnight at 4° C., read-out: INHIBITION (Log1 0 Reduction) INFECTIVITY) turned out to be 4.25. The “HIV infectivity titers diminished” value with HIV [9] (after treatment with hypericin (summary of Table 3)) was 3-4 logs. Moreover, the “detergent-mediated release of reverse transcriptase activity from viral particles” value in the series with retroviral particles (0.5-1% Triton X-100, FIG. 1) is recorded as “prevents detergent-mediated (0.5-1% Triton X-100) release of reverse transcriptase activity”. In addition, the “resistance of virion to disruption with non-ionic detergents” value in the series with retroviral particles (1% aqueous Triton X-100) is recorded as “more resistant to disruption”.
